Here are results for 9 molecules from patent publication US20260295053A1, “COMPOUNDS FOR DEGRADATION AND INHIBITION OF KRAS (G12D) PROTEIN” (Shenzhen Ionova Life Science Co., Ltd., priority 2023, published 2026).

In one experiment the test system is AsPC-1 cells. Nature of the experiment: AsPC-1 cell proliferation assay (CellTiter Glo). The experiment is classed as cell-based. As to conditions: Homo sapiens, ASPC1, 144 h, 6 days. The procedure:
ASPC-1 and PK-59 cellular assays ASPC-1 (ATCC cat. CRL-1682) and PK-59 (Nanjing Cobioer, Cat. No. CBP61184) were used in KRAS cellular degradation, pERK inhibition and proliferation assays. The two cell lines were maintained following vendor's instructions. For monitoring KRAS (G12D) cellular degradation and pERK biomarker inhibition, cells were seeded into a 96-well plate with 22,000 and 16,000 cells/well for assays in ASPC-1 and PK-59, respectively. Cells were incubated at 37° C. with 5% CO2 and cell density was monitored until ^~90% confluency was reached. Compounds were serially diluted at a 1:3 ratio and dispensed into each well at final concentrations ranging from […] to 1.5 nM. After incubation for 24 hours, the culture media were removed and the cells were subjected to fixation, permeabilization and blocking (Intercept blocking buffer, Li-cor). For KRAS (G12D) degradation, the cells were treated with primary antibody (KRAS G12D antibody, Cell Signaling Technologies, Cat. No. CST14429) and for β-actin (β-actin mAb, Beyotime, Cat. No. AF-5001), and followed by secondary antibodies, Anti-rabbit IgG (H+L) (DyLight™ 800 4×PEG Conjugate) or IRDye® 680RD Goat anti-Mouse IgG. For pERK inhibition assay, cells were treated with primary antibodies for pERK (Phospho-p44/42 MAPK (Erk1/2) (Thr202/Tyr204) (D13.14.4E) XP® Rabbit mAb, Cell Signaling Technologies, Cat. No. CST-4370) and β-actin (β-actin mAb, Beyotime, Cat. No. AF-5001), and followed by secondary antibodies, Anti-rabbit IgG (H+L) (DyLight™ 800 4×PEG Conjugate) or IRDye® 680RD Goat anti-Mouse IgG. Fluorescence signals were read on Odyssey CLX instrument. For cell proliferation assays, cells were seeded into a 96-well plate at 3,500 and 800 cells/well for assays in ASPC-1 and PK-59, respectively. Cells were incubated at 37° C. with 5% CO2 for overnight. Compounds were serially diluted at a 1:3 ratio and dispensed into each well at final concentrations ranging from […] to 1.5 nM. After incubation for 6 days, cell viability reagent (CellTiter Glo, Promega, Cat. No. G7573) was added to each well and luminescence was recorded on Molecular Devices Spectramax iD3 instrument. IC50, half-maximal inhibitory concentration for pERK inhibition or cell proliferation, and DC50, half-maximal degradation concentration in KRAS (G12D) cellular degradation were determined by fitting the corresponding dose response curves using GraphPad Prism software.
Wherein “A” means the value <10 nM, “B” means 10 nM<the value <100 nM, “C” means 100 nM<the value <1000 nM, and “D” means the value >1000 nM, in which, the value means the value of DC50 or IC50. NT means not tested.
(Cellular ATP, detected with luciferase, serves as a proxy for viable cell number.)

The target of a further experiment is T1, KRAS (G12D) (Homo sapiens, UniProt P01116, G12D).
T1 construct: in-cell western with KRAS G12D antibody after 24 h
T1 sequence (P01116 1-188 isoform P01116-2 G12D): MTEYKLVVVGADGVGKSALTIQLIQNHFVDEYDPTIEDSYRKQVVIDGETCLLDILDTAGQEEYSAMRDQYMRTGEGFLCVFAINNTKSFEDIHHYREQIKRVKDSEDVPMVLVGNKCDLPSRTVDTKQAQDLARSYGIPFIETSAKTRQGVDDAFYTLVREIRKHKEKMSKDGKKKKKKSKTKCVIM
Nature of the experiment: KRAS (G12D) cellular degradation assay in AsPC-1 cells. The conditions noted are these: 24 hours, antibody fluorescence (Odyssey CLX), DC50 half-maximal degradation concentration. The experiment is classed as cell-based. The essentials:
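Read-outs were KRAS G12D immunofluorescence against β-actin after 24 h (DC50) and CellTiter Glo luminescence after 6 days (IC50). Compounds were titrated 1:3 from […] to 1.5 nM final on AsPC-1 cells at 37 °C, 5% CO2.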

In the case of `CCn1nccc1-c1ccc([C@H](CO)NC(=O)[C@@H]2C[C@@H](O)CN2C(=O)[C@H](C(C)C)n2cc(-c3ccc(COc4c(-c5c(C)c(F)cc6[nH]ncc56)c(C5CC5)cc5c(N6CC7CCC(C6)N7)nc(OC6CCOCC6)nc45)cc3)nn2)cc1` [Example 35, (2S,4R)-1-((2S)-2-(4-(4-(((4-(3,8-diazabicyclo[3.2.1]octan-3-yl)-6-cyclopropyl-7-(6-fluoro-5-methyl-1H-indazol-4-yl)-2-((tetrahydro-2H-pyran-4-yl)oxy)quinazolin-8-yl)oxy)methyl)phenyl)-1H-1,2,3-triazol-1-yl)-3-methylbutanoyl)-N—((R)-1-(4-(1-ethyl-1H-pyrazol-5-yl)phenyl)-2-hydroxyethyl)-4-hydroxypyrrolidine-2-carboxamide], the IC50 (commonly the concentration needed to halve the response being measured) in the experiment with AsPC-1 cells is under 10 nM. Besides, the DC50 (as a rule, the midpoint of the concentration-degradation curve) on KRAS (G12D) was in the range of 10 to 100 nM.

Take `CCn1nccc1-c1ccc(CNC(=O)[C@@H]2C[C@@H](O)CN2C(=O)[C@H](C(C)C)n2cc(-c3ccc(COc4c(-c5c(C)c(F)cc6[nH]ncc56)c(C5CC5)cc5c(N6C[C@@H]7C[C@H]6CN7)nc(OC[C@H](C)OC)nc45)cc3)nn2)c2c1CC2` [Example 36, (2S,4R)-1-((2S)-2-(4-(4-(((4-((1S,4S)-2,5-diazabicyclo[2.2.1]heptan-2-yl)-6-cyclopropyl-7-(6-fluoro-5-methyl-1H-indazol-4-yl)-2-((S)-2-methoxypropoxy)quinazolin-8-yl)oxy)methyl)phenyl)-1H-1,2,3-triazol-1-yl)-3-methylbutanoyl)-N-((5-(1-ethyl-1H-pyrazol-5-yl)bicyclo[4.2.0]octa-1(6),2,4-trien-2-yl)methyl)-4-hydroxypyrrolidine-2-carboxamide]: in the experiment with AsPC-1 cells, the IC50 lay within 10 to 100 nM. The molecule further registered a DC50 at KRAS (G12D) of 10 to 100 nM.

As for `CCn1nccc1-c1ccc([C@H](CO)NC(=O)[C@@H]2C[C@@H](O)CN2C(=O)[C@H](C(C)C)n2cc(-c3ccc(COc4c(-c5c(C)c(F)cc6[nH]ncc56)c(C5CC5)cc5c(N6C[C@@H]7C[C@H]6CN7)nc(OC6CCN(S(C)(=O)=O)CC6)nc45)cc3)nn2)cc1` [Example 38, (2S,4R)-1-((2S)-2-(4-(4-(((4-((1S,4S)-2,5-diazabicyclo[2.2.1]heptan-2-yl)-6-cyclopropyl-7-(6-fluoro-5-methyl-1H-indazol-4-yl)-2-((1-(methylsulfonyl)piperidin-4-yl)oxy)quinazolin-8-yl)oxy)methyl)phenyl)-1H-1,2,3-triazol-1-yl)-3-methylbutanoyl)-N—((R)-1-(4-(1-ethyl-1H-pyrazol-5-yl)phenyl)-2-hydroxyethyl)-4-hydroxypyrrolidine-2-carboxamide], the IC50 in the experiment on AsPC-1 cells was under 10 nM. Further, the 50% degradation concentration (DC50) on KRAS (G12D) is under 10 nM.

In turn, `CO[C@@H](C)COc1nc(N2C[C@@H]3C[C@H]2CN3)c2cc(C3CC3)c(-c3c(C)c(F)cc4[nH]ncc34)c(OCc3ccc(-c4cn([C@H](C(=O)N5C[C@H](O)C[C@H]5C(=O)N[C@H](C#Cc5ccc(F)cc5F)CO)C(C)C)nn4)cc3)c2n1` [Example 40, (2S,4R)-1-((2S)-2-(4-(4-(((4-((1S,4S)-2,5-diazabicyclo[2.2.1]heptan-2-yl)-6-cyclopropyl-7-(6-fluoro-5-methyl-1H-indazol-4-yl)-2-((S)-2-methoxypropoxy)quinazolin-8-yl)oxy)methyl)phenyl)-1H-1,2,3-triazol-1-yl)-3-methylbutanoyl)-N—((R)-4-(2,4-difluorophenyl)-1-hydroxybut-3-yn-2-yl)-4-hydroxypyrrolidine-2-carboxamide] had an IC50 in the experiment with AsPC-1 cells of 10 to 100 nM. This molecule displayed a DC50 at KRAS (G12D) of 10 to 100 nM.

In the experiment with AsPC-1 cells, `CO[C@@H](C)COc1nc(N2C[C@@H]3C[C@H]2CN3)c2cc(C3CC3)c(-c3c(C)c(F)cc4[nH]ncc34)c(OCc3ccc(-c4cn([C@H](C(=O)N5C[C@H](O)C[C@H]5C(=O)N[C@H](C#Cc5scnc5C)CO)C(C)C)nn4)cc3)c2n1` [Example 41, (2S,4R)-1-((2S)-2-(4-(4-(((4-((1S,4S)-2,5-diazabicyclo[2.2.1]heptan-2-yl)-6-cyclopropyl-7-(6-fluoro-5-methyl-1H-indazol-4-yl)-2-((S)-2-methoxypropoxy)quinazolin-8-yl)oxy)methyl)phenyl)-1H-1,2,3-triazol-1-yl)-3-methylbutanoyl)-4-hydroxy-N—((R)-1-hydroxy-4-(4-methylthiazol-5-yl)but-3-yn-2-yl)pyrrolidine-2-carboxamide] showed an IC50 of under 10 nM. Besides, the DC50 on KRAS (G12D) was under 10 nM.

In the experiment with AsPC-1 cells, `CO[C@@H](C)COc1nc(N2C[C@@H]3C[C@H]2CN3)c2cc(C3CC3)c(-c3c(C)c(F)cc4[nH]ncc34)c(OCc3ccc(-c4cn([C@H](C(=O)N5C[C@H](O)C[C@H]5C(=O)N[C@H](C#Cc5c(F)cccc5F)CO)C(C)C)nn4)cc3)c2n1` [Example 42, (2S,4R)-1-((2S)-2-(4-(4-(((4-((1S,4S)-2,5-diazabicyclo[2.2.1]heptan-2-yl)-6-cyclopropyl-7-(6-fluoro-5-methyl-1H-indazol-4-yl)-2-((S)-2-methoxypropoxy)quinazolin-8-yl)oxy)methyl)phenyl)-1H-1,2,3-triazol-1-yl)-3-methylbutanoyl)-N—((R)-4-(2,6-difluorophenyl)-1-hydroxybut-3-yn-2-yl)-4-hydroxypyrrolidine-2-carboxamide] showed an IC50 of 10 to 100 nM. Also, on KRAS (G12D), the DC50 was 10 to 100 nM.

For `CCn1nccc1-c1ccc([C@H](CO)NC(=O)[C@@H]2C[C@@H](O)CN2C(=O)[C@H](C(C)C)n2cc(-c3ccc(COc4c(-c5c(C)c(F)cc6[nH]ncc56)c(C5CC5)cc5c(N6C[C@@H]7C[C@H]6CN7)nc(OC6CCC7(CC6)COC7)nc45)cc3)nn2)cc1` [Example 43, (2S,4R)-1-((2S)-2-(4-(4-(((2-((2-oxaspiro[3.5]nonan-7-yl)oxy)-4-((1S,4S)-2,5-diazabicyclo[2.2.1]heptan-2-yl)-6-cyclopropyl-7-(6-fluoro-5-methyl-1H-indazol-4-yl)quinazolin-8-yl)oxy)methyl)phenyl)-1H-1,2,3-triazol-1-yl)-3-methylbutanoyl)-N—((R)-1-(4-(1-ethyl-1H-pyrazol-5-yl)phenyl)-2-hydroxyethyl)-4-hydroxypyrrolidine-2-carboxamide], the IC50 with AsPC-1 cells is under 10 nM. This molecule had a DC50 on KRAS (G12D) of under 10 nM.

Molecule `CCn1nccc1-c1ccc([C@H](CO)NC(=O)[C@@H]2C[C@@H](O)CN2C(=O)[C@H](C(C)C)n2cc(-c3ccc(COc4c(-c5c(C)c(F)cc6[nH]ncc56)c(C5CC5)cc5c(N6C[C@@H]7C[C@H]6CN7)nc(OC[C@H](C)OC)nc45)cc3C)nn2)cc1` [Example 44, (2S,4R)-1-((2S)-2-(4-(4-(((4-((1S,4S)-2,5-diazabicyclo[2.2.1]heptan-2-yl)-6-cyclopropyl-7-(6-fluoro-5-methyl-1H-indazol-4-yl)-2-((S)-2-methoxypropoxy)quinazolin-8-yl)oxy)methyl)-2-methylphenyl)-1H-1,2,3-triazol-1-yl)-3-methylbutanoyl)-N—((R)-1-(4-(1-ethyl-1H-pyrazol-5-yl)phenyl)-2-hydroxyethyl)-4-hydroxypyrrolidine-2-carboxamide] displayed an IC50 in the experiment on AsPC-1 cells of under 10 nM. The molecule further displayed a 50% degradation concentration (DC50) at KRAS (G12D) of under 10 nM.

In turn, `CCn1nccc1-c1ccc([C@H](CO)NC(=O)[C@@H]2C[C@@H](O)CN2C(=O)[C@H](C(C)C)n2cc(-c3ccc(COc4c(-c5c(C)c(F)cc6[nH]ncc56)c(C5CC5)cc5c(N6C[C@@H]7C[C@H]6CN7)nc(OC[C@H](C)OC)nc45)cc3OC)nn2)cc1` [Example 45, (2S,4R)-1-((2S)-2-(4-(4-(((4-((1S,4S)-2,5-diazabicyclo[2.2.1]heptan-2-yl)-6-cyclopropyl-7-(6-fluoro-5-methyl-1H-indazol-4-yl)-2-((S)-2-methoxypropoxy)quinazolin-8-yl)oxy)methyl)-2-methoxyphenyl)-1H-1,2,3-triazol-1-yl)-3-methylbutanoyl)-N—((R)-1-(4-(1-ethyl-1H-pyrazol-5-yl)phenyl)-2-hydroxyethyl)-4-hydroxypyrrolidine-2-carboxamide] returned an IC50 in the experiment on AsPC-1 cells of 10 to 100 nM. The same molecule yielded a DC50 at KRAS (G12D) of 10 to 100 nM.
